Data as given in ChEMBL document CHEMBL1201862, “PubChem BioAssay data set” (2004).
The source made the active and inactive calls.

What was measured:
[1] = biological target: T1, Tyrosine-protein phosphatase non-receptor type 7 (Homo sapiens, UniProt P35236); format: functional
T1 sequence (P35236 whole entry): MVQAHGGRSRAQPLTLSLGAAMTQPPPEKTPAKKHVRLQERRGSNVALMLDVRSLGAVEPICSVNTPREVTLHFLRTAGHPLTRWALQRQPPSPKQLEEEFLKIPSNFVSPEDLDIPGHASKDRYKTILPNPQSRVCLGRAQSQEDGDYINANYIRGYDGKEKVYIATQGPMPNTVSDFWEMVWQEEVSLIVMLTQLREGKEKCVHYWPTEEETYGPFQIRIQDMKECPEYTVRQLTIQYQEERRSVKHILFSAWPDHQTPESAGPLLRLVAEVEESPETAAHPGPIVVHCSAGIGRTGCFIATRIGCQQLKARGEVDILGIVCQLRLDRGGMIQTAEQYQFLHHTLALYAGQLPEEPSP

[2] = biological target: T2, Tyrosine-protein phosphatase non-receptor type 22 (Homo sapiens, UniProt Q9Y2R2); format: functional
T2 sequence (Q9Y2R2 whole entry): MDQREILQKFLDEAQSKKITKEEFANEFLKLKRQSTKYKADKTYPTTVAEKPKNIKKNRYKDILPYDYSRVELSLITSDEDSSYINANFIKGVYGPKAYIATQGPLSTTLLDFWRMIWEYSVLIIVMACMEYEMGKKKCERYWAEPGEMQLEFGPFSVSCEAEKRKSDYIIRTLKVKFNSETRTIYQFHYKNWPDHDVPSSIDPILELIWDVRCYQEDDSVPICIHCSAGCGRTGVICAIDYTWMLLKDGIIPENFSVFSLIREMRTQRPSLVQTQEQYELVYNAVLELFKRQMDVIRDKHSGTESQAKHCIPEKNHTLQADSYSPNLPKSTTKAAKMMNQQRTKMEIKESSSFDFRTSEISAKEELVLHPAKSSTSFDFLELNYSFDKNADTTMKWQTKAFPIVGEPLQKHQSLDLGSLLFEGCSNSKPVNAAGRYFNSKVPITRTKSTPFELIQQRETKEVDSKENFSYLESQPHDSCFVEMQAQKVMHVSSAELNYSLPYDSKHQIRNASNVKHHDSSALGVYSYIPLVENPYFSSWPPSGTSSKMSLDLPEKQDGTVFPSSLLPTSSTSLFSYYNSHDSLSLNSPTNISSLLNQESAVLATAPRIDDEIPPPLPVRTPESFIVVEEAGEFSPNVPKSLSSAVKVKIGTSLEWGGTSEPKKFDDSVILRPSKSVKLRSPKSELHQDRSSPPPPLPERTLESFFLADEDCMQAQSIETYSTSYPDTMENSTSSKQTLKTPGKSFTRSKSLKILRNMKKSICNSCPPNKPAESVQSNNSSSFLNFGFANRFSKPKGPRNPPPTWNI

[3] = biological target: T2, Tyrosine-protein phosphatase non-receptor type 22; format: functional; remark: listed apart in the source
[4] = biological target: T3, SUMO-activating enzyme (Homo sapiens, UniProt Q9UBT2); test: SUMOylation inhibitor hit validation, confirmation, SUMOylation inhibitor project, biochemical, AlphaScreen (AID 2018); format: functional
[5] = biological target: T3, SUMO-activating enzyme; test: inhibitors of in vitro SUMOylation cascade, primary screen, biochemical, HTRF, uHTS (AID 2006); format: protein-complex assay
[6] = cells; format: functional
[7] = biological target: T4, Replicative DNA helicase DnaB (Mycobacterium tuberculosis, UniProt P9WMR3); test: DnaB intein splicing inhibitors, dose response, biochemical, cell-free fluorescence (AID 449749); format: functional
T4 sequence (P9WMR3 whole entry): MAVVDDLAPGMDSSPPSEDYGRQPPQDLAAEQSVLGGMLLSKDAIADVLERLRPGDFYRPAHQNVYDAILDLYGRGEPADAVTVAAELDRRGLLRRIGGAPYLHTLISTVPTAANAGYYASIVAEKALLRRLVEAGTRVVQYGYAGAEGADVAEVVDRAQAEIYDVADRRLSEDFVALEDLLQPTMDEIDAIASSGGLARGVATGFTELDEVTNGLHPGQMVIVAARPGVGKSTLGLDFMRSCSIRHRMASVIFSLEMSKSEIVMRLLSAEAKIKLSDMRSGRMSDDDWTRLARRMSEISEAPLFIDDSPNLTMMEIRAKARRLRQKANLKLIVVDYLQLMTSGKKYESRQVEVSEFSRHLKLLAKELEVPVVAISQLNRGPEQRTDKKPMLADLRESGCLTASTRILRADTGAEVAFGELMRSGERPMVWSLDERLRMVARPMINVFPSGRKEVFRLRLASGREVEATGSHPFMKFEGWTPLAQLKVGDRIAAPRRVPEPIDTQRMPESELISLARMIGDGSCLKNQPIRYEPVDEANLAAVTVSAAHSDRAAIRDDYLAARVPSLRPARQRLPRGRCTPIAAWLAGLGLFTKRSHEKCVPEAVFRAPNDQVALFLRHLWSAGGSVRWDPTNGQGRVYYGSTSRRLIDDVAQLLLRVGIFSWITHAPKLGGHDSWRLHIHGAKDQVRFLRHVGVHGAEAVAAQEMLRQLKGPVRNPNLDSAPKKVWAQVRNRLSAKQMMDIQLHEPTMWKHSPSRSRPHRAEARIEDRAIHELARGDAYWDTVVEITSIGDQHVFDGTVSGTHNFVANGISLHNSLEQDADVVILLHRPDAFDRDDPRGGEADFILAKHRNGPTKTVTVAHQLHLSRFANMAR

[8] = biological target: T5, Protein RecA (Mycobacterium tuberculosis, UniProt P9WHJ3); test: Fluorescence Cell-Free Homogeneous Dose Retest to Identify Inhibitors of RecA-Intein Splicing Activity. [Related pubchem assays (depositor defined):AID2097, AID2223, AID489010, AID492950]; format: functional
T5 sequence (P9WHJ3 whole entry): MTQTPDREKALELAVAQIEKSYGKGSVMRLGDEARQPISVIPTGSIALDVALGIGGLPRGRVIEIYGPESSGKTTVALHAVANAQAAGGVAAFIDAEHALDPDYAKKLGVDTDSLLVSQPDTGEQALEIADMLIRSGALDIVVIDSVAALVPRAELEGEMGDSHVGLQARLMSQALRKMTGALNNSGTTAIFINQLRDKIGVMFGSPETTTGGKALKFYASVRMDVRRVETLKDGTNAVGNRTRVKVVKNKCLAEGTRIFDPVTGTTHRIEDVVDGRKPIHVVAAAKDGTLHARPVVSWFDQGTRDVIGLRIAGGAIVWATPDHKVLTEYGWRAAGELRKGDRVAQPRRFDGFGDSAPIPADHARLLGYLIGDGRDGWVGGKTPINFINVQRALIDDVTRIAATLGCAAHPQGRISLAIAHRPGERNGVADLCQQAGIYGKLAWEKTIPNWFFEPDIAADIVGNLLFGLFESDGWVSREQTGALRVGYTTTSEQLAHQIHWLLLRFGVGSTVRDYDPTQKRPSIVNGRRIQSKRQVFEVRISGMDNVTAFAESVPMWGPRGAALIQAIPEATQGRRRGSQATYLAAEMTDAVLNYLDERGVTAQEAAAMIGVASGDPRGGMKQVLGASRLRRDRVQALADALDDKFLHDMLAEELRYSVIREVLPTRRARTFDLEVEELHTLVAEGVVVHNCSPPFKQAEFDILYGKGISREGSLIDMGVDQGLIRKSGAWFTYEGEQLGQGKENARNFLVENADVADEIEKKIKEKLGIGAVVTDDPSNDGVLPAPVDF

[9] = biological target: Genome polyprotein (dengue virus type 2, UniProt P29990); test: Dengue-2 NS5 methyltransferase inhibitors, primary screen, biochemical, confirmation dose response (AID 588689); format: functional
[10] = biological target: T6, Rac GTPase-activating protein 1 (Homo sapiens, UniProt Q9H0H5); test: MgcRacGAP GTPase-activating activity inhibitors, confirmation, biochemical, ADP Hunter fluorescence, primary and confirmatory (AID 624330); format: functional
T6 sequence (Q9H0H5 whole entry): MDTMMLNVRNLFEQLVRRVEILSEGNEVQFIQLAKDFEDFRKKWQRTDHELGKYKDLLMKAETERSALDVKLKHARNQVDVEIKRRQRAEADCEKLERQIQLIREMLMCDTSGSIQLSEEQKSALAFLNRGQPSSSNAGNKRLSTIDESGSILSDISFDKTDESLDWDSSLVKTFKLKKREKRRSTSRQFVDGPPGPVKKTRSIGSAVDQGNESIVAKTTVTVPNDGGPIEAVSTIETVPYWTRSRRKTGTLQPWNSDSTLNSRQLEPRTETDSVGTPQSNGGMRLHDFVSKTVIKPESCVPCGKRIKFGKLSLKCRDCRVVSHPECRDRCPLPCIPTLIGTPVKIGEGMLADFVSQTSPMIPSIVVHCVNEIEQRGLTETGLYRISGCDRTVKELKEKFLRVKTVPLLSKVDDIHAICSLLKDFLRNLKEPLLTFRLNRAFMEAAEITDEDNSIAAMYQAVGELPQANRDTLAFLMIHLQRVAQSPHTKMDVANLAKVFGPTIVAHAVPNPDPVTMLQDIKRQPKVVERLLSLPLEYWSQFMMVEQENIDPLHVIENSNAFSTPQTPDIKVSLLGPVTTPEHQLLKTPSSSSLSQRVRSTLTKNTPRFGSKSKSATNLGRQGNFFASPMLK

[11] = biological target: T7, Microphthalmia-associated transcription factor (Homo sapiens, UniProt O75030); test: TRPM1 promoter luciferase signal decrease, dose response, MITF inhibitor project, cell-based, SK-MEL-5, cherry-picked, set 3 (AID 493073); format: functional
T7 sequence (O75030 whole entry): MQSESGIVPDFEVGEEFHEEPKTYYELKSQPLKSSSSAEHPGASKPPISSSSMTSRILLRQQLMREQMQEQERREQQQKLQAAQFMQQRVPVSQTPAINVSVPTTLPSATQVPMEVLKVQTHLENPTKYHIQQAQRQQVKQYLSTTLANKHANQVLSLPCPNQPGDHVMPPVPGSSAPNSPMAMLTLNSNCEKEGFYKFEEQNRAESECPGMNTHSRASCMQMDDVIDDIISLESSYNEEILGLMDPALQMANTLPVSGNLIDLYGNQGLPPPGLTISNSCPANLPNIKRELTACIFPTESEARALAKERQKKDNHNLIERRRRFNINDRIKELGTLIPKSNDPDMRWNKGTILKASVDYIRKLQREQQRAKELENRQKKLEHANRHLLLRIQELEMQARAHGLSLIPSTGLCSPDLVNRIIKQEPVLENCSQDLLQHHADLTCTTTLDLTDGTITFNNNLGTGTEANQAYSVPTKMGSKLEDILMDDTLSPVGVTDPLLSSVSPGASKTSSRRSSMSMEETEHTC

[12] = tested on: A-375; test: MITF: Counter assay: A375 proliferation Measured in Cell-Based System Using Plate Reader - 2084-03_Inhibitor_Dose_DryPowder_Activity. [Related pubchem assays (depositor defined):AID488944]; format: functional; settings: Homo sapiens
[13] = biological target: T8, Corticotropin-releasing factor receptor 2/Corticotropin-releasing factor-binding protein (Homo sapiens, UniProt P24387+Q13324); test: activators of CRF receptor 2 with binding protein – uHTS hits, confirmation (AID 602473); format: functional; settings: read-out: EC50_Mean
T8 sequence (Q13324 whole entry): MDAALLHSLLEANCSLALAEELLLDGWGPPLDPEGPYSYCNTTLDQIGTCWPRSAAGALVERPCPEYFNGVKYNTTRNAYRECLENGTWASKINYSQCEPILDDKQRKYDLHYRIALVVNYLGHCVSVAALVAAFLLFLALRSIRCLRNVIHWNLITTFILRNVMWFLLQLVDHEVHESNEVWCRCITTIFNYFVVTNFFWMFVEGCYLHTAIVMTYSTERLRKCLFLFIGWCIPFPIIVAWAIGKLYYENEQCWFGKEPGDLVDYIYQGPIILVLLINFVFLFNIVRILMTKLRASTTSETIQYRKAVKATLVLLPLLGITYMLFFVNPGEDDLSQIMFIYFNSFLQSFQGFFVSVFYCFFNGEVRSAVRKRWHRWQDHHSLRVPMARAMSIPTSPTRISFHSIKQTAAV
T8 sequence (P24387 whole entry): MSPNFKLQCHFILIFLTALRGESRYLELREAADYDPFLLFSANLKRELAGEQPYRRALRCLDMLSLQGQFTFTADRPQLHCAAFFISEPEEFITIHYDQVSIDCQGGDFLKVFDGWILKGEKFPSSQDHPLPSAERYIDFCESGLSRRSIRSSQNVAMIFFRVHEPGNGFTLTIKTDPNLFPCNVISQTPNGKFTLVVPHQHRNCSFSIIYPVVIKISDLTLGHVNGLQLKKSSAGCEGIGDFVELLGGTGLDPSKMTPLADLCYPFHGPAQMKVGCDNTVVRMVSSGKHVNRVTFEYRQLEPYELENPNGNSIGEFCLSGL

[14] = biological target: Glucose-6-phosphate 1-dehydrogenase (Homo sapiens, UniProt P11413); test: human G6PD enzyme inhibitors, dose response, selectivity assay for P. falciparum G6PD inhibitor project, biochemical, fluorescence (AID 504792); format: functional
Sequence of Glucose-6-phosphate 1-dehydrogenase (P11413 whole entry): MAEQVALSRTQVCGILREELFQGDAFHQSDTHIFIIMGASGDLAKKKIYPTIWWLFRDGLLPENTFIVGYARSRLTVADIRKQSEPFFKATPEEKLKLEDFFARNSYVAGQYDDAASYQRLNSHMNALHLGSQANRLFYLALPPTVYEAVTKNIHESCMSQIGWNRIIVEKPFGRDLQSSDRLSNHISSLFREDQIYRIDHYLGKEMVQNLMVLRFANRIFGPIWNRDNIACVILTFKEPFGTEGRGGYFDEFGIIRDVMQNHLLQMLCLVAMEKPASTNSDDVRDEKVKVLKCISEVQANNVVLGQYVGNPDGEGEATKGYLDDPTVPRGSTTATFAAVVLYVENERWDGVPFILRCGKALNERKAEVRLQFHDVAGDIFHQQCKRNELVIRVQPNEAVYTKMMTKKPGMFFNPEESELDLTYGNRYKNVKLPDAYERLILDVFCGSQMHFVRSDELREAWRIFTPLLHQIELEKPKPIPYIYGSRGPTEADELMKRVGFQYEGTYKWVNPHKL

T3 sequence (Q9UBE0 whole entry): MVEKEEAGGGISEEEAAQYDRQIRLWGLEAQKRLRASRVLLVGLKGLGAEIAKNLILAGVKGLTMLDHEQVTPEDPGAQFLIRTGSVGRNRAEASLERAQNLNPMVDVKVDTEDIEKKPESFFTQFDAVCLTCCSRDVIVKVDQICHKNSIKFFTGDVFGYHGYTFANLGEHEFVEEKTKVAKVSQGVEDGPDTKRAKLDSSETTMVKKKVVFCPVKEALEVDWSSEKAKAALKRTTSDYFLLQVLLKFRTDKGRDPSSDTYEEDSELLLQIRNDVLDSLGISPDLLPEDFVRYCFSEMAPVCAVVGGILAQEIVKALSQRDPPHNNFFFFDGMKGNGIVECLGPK
T3 sequence (Q9UBT2 whole entry): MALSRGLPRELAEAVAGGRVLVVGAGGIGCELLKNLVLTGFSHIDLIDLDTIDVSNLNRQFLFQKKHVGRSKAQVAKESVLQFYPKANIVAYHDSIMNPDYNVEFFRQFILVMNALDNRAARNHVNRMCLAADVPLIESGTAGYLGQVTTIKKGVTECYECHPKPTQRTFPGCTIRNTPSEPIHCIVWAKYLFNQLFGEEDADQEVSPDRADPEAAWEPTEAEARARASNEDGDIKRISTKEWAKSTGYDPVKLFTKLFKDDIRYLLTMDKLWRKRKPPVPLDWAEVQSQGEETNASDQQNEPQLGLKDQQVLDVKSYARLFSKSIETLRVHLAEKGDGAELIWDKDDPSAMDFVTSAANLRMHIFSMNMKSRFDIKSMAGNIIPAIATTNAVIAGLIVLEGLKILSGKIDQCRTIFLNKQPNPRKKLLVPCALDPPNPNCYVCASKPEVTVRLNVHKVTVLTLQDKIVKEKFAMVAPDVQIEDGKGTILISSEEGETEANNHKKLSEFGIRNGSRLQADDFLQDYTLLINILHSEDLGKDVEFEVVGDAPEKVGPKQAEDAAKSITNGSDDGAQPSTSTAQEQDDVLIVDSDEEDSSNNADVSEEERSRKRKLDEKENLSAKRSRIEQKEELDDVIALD
Sequence of Genome polyprotein (P29990 2492-3391 limits assumed): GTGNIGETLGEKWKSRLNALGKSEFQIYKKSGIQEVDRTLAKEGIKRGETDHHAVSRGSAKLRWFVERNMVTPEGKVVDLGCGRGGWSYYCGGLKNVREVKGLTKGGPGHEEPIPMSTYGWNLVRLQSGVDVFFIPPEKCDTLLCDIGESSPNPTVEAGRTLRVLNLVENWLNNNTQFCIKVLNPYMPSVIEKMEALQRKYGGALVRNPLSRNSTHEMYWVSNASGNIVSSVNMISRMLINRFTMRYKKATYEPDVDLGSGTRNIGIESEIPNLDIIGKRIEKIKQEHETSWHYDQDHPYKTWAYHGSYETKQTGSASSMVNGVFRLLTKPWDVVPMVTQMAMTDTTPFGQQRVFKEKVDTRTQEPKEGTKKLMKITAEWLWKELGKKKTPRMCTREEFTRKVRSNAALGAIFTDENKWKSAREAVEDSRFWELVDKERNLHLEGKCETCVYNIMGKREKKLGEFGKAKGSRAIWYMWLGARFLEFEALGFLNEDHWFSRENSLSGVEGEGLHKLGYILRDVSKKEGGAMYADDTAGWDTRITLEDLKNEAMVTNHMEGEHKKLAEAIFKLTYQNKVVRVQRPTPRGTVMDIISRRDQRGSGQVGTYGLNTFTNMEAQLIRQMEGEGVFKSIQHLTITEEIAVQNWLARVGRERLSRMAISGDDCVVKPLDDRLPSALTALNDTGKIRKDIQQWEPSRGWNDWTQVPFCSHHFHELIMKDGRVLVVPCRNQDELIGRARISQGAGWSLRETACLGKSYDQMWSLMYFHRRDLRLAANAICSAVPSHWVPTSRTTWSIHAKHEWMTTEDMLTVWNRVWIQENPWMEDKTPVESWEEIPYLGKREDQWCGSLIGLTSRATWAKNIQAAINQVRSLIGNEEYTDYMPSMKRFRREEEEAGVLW

CCOc1ccccc1NC(=O)CSc1nnc(Cc2cccn2C)n1-c1ccc(F)cc1
IC50 [1]: > 79.4 µM (inactive)
IC50 [2]: > 79.4 µM (inactive)
IC50 [3]: > 79.4 µM (inactive)

CC1=NN(c2ccc(C(=O)O)cc2)C(=O)/C1=C\c1ccc(OC(=O)c2cccs2)cc1
IC50 [4]: 7.86 µM (active)
IC50 [5]: 57.7 µM (active)
IC50 [6]: 15.1 µM (active)
AC50 [7]: 2.08 µM (active)
EC50 [8]: 1.9 µM (active)
IC50 [9]: 15.6 µM (active)
IC50 [10]: 185 µM (active)

CCOC(=O)/C=c1/s/c(=C/c2ccc3cc(OC)ccc3c2)c(=O)n1CC(=O)NCC1CCCO1 (stereo unspecified)
AC50 [11]: 6.79 µM (active)
AC50 [12]: 29.7 µM (active)
EC50 [13]: 7.75 µM (active)

N#Cc1ccc(N=c2ssnc2Cl)cc1
IC50 [14]: 48.3 µM (inactive)

CN(C)c1ccc(/C=C(\C#N)c2ccccn2)cc1
AC50 [11]: 6.32 µM (active)
AC50 [12]: 45.2 µM (active)
